Article PMC11831560, “Development of the Pyrido[2,3-d]pyrimidin-7(8H)-one Scaffold toward Potent and Selective NUAK1 Inhibitors” (ACS Medicinal Chemistry Letters, 2025)

What was measured:
Assay in all cases: Kinase panel radiometric filter binding (33P-ATP)
Assay type in all cases: biochemical
TrkA = TrkA (Homo sapiens, UniProt P04629); design: % activity remaining: dose or concentration left out as unconfirmed; conditions: for % activity remaining: TrkA
Description: (§1) Table S4: AMPKA kinase activity data (ADP-Glo assay)
(§2) Compound pIC50 (Fold selectivity
(§3) Table S5. Kinase selectivity screening for 9 and 24 at 1 µM against a general kinase panel of 140 targets
(§4) in radiometric filter binding assay using 33P-γ−ATP at the MRC PPU International Centre for Kinase
(§5) Profiling, University of Dundee. pIC50 values were determined for compounds with <20% activity
(§6) Kinase activity s.d. pIC50 activity s.d. pIC50

IR = IR (Homo sapiens, UniProt P06213); design: % activity remaining: dose or concentration left out as unconfirmed; conditions: for % activity remaining: IR
Description: as §1, §2, §3, §4, §5, §6

YES1 = YES1 (Homo sapiens, UniProt P07947); design: % activity remaining: dose or concentration left out as unconfirmed; conditions: for % activity remaining: YES1
Description: as §1, §2, §3, §4, §5, §6

MAP4K5 = MAP4K5 (Homo sapiens, UniProt Q9Y4K4); design: % activity remaining: dose or concentration left out as unconfirmed; conditions: for % activity remaining: MAP4K5
Description: as §1, §2, §3, §4, §5, §6

MARK1 = target: T1, MARK1 (Homo sapiens, UniProt Q9P0L2); design: % activity remaining: dose or concentration left out as unconfirmed; conditions: for % activity remaining: MARK1
T1 construct: purchased MRC PPU
Description: as §1, §2, §3, §4, §5, §6

DYRK3 = DYRK3 (Homo sapiens, UniProt O43781); design: dose or concentration left out as unconfirmed
How it was run: (§7)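 140-kinase general panel; radiometric filter binding, 33P-ATP; test compound 1 µM; % activity remaining ± s.d.; pIC50 determined only if <20% activity.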

STK33 = STK33 (Homo sapiens, UniProt Q9BYT3); design: dose or concentration left out as unconfirmed
How it was run: as §7

CSK = CSK (Homo sapiens, UniProt P41240); design: dose or concentration left out as unconfirmed
How it was run: as §7

NEK6 = NEK6 (Homo sapiens, UniProt Q9HC98); design: dose or concentration left out as unconfirmed
How it was run: as §7

CK1δ = CK1δ (Homo sapiens, UniProt P48730); design: dose or concentration left out as unconfirmed
How it was run: as §7

MSK1 = MSK1 (Homo sapiens, UniProt O75582); design: dose or concentration left out as unconfirmed
How it was run: as §7

Lck = Lck (Homo sapiens, UniProt P06239); design: dose or concentration left out as unconfirmed
How it was run: as §7

MNK2 = MNK2 (Homo sapiens, UniProt Q9HBH9); design: dose or concentration left out as unconfirmed
How it was run: as §7

PKA = PKA (Homo sapiens, UniProt P17612); design: dose or concentration left out as unconfirmed
How it was run: as §7

EPH-B4 = EPH-B4 (Homo sapiens, UniProt P54760); design: dose or concentration left out as unconfirmed
How it was run: as §7

PINK = system: PINK; design: dose or concentration left out as unconfirmed
How it was run: as §7

TSSK1 = TSSK1 (Homo sapiens, UniProt Q9BXA7); design: dose or concentration left out as unconfirmed
How it was run: as §7

MAPKAP-K3 = MAPKAP-K3 (Homo sapiens, UniProt Q16644); design: dose or concentration left out as unconfirmed
How it was run: as §7

MPSK1 = MPSK1 (Homo sapiens, UniProt O75716); design: dose or concentration left out as unconfirmed
How it was run: as §7

ZAP70 = ZAP70 (Homo sapiens, UniProt P43403); design: dose or concentration left out as unconfirmed
How it was run: as §7

SmMLCK = SmMLCK (Homo sapiens, UniProt Q15746); design: dose or concentration left out as unconfirmed
How it was run: as §7

ERK2 = ERK2 (Homo sapiens, UniProt P28482); design: dose or concentration left out as unconfirmed
How it was run: as §7

MAP4K3 = MAP4K3 (Homo sapiens, UniProt Q8IVH8); design: dose or concentration left out as unconfirmed
How it was run: as §7

SRPK1 = SRPK1 (Homo sapiens, UniProt Q96SB4); design: dose or concentration left out as unconfirmed
How it was run: as §7

CAMKKb = CAMKKb (Homo sapiens, UniProt Q96RR4); design: dose or concentration left out as unconfirmed
How it was run: as §7

PRK2 = PRK2 (Homo sapiens, UniProt Q16513); design: dose or concentration left out as unconfirmed
How it was run: as §7

SGK1 = SGK1 (Homo sapiens, UniProt O00141); design: dose or concentration left out as unconfirmed
How it was run: as §7

DDR2 = DDR2 (Homo sapiens, UniProt Q16832); design: dose or concentration left out as unconfirmed
How it was run: as §7

PIM2 = PIM2 (Homo sapiens, UniProt Q9P1W9); design: dose or concentration left out as unconfirmed
How it was run: as §7

RSK1 = RSK1 (Homo sapiens, UniProt Q15418); design: dose or concentration left out as unconfirmed
How it was run: as §7

PKBb = PKBb (Homo sapiens, UniProt P31751); design: dose or concentration left out as unconfirmed
How it was run: as §7

PKCa = PKCa (Homo sapiens, UniProt P17252); design: dose or concentration left out as unconfirmed
How it was run: as §7

GSK3b = GSK3b (Homo sapiens, UniProt P49841); design: dose or concentration left out as unconfirmed
How it was run: as §7

TAO1 = TAO1 (Homo sapiens, UniProt Q7L7X3); design: dose or concentration left out as unconfirmed
How it was run: as §7

[1] = radiometric filter binding panel

Chain of TrkA (P04629 33-796, species assumed): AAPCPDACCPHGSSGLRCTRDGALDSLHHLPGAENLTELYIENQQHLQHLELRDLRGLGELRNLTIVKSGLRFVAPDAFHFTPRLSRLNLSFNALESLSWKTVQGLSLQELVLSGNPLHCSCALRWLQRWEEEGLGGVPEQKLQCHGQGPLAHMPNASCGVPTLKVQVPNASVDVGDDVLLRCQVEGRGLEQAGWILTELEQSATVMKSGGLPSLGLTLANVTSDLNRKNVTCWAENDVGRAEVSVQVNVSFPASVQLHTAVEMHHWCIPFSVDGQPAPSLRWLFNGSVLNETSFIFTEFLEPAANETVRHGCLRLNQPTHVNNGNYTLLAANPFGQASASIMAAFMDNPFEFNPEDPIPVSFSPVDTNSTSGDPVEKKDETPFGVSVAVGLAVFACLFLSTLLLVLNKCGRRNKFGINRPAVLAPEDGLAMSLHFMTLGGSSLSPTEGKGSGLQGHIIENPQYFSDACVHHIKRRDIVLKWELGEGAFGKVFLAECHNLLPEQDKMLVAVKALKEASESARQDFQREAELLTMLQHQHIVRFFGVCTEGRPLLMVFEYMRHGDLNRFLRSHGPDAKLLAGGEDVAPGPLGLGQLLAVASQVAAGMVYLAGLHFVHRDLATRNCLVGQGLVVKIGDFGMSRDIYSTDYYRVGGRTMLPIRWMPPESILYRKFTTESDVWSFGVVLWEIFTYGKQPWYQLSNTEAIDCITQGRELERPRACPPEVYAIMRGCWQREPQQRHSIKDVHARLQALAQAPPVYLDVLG
Chain of IR (P06213 28-1382): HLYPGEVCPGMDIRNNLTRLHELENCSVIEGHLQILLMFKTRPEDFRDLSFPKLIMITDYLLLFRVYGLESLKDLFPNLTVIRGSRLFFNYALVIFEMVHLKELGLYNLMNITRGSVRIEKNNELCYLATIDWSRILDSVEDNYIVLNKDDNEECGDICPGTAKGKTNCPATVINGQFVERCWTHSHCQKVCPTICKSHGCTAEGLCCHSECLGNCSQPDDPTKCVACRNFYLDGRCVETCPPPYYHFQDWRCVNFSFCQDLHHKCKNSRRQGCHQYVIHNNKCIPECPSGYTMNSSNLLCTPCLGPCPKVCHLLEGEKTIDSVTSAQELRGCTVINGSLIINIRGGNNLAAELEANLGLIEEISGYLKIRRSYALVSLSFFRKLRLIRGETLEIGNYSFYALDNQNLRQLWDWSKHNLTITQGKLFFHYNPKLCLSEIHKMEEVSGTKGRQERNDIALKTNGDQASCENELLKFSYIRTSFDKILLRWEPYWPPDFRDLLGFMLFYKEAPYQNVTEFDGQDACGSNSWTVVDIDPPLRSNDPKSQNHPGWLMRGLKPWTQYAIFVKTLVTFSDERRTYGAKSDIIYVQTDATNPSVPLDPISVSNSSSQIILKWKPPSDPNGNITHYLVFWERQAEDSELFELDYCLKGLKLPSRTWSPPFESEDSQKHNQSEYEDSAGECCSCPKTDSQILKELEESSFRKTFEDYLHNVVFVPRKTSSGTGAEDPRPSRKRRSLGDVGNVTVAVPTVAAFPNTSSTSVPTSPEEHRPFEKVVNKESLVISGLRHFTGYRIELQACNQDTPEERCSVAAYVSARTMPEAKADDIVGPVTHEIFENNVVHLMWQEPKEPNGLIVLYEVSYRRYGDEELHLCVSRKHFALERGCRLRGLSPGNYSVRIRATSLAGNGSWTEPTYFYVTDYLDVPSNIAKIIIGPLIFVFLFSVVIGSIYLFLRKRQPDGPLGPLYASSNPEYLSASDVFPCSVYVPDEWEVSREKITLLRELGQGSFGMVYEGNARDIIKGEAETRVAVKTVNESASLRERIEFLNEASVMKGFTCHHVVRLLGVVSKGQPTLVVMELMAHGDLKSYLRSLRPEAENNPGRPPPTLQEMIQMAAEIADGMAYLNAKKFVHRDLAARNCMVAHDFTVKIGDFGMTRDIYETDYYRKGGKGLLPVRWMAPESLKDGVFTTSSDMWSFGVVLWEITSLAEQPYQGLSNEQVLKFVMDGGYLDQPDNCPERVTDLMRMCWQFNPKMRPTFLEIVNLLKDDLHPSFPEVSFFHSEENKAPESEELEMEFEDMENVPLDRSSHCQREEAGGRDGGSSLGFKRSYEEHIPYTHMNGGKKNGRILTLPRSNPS
Chain of MAP4K5 (Q9Y4K4 whole entry, species assumed): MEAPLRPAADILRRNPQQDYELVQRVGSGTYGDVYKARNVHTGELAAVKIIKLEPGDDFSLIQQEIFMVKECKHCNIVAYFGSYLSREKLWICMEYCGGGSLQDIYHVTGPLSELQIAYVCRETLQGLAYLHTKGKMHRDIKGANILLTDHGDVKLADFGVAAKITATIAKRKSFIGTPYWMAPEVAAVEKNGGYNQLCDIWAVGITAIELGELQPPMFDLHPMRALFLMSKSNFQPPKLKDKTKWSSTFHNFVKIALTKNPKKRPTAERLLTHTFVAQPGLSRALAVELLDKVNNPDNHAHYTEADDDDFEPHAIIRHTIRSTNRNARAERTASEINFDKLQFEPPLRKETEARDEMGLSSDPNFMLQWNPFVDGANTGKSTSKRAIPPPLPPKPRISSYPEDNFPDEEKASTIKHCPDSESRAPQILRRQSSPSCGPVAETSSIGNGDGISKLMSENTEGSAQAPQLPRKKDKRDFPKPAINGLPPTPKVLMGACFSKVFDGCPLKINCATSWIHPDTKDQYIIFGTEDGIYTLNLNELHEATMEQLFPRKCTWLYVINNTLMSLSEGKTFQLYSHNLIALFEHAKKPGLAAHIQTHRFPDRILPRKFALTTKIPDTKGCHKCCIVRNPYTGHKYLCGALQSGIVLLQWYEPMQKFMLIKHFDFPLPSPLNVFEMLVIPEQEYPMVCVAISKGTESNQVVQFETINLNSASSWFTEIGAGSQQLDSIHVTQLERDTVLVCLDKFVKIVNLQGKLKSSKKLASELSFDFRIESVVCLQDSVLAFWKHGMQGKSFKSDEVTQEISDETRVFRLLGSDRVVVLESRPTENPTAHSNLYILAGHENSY
T1 sequence (Q9P0L2 whole entry): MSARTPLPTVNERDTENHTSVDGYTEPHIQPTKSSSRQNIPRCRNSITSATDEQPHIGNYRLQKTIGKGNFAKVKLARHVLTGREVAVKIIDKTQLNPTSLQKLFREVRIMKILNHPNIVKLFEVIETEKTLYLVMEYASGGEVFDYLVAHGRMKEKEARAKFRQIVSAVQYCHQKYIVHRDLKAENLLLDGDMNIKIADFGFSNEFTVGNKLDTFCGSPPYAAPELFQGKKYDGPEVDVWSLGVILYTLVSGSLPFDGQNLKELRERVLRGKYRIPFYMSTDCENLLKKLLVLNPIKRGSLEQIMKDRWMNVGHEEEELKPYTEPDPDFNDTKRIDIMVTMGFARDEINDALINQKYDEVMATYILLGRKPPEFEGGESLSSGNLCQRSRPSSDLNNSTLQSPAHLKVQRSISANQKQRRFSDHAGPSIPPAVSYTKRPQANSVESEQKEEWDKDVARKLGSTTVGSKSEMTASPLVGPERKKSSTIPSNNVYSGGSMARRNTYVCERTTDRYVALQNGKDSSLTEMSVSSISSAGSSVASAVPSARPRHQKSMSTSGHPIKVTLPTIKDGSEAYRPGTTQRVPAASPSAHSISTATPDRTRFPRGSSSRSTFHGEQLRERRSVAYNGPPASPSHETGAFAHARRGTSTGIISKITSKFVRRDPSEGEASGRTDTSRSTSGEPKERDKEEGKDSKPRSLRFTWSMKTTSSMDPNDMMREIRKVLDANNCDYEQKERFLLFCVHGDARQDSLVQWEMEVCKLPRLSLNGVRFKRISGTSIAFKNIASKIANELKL
Chain of YES1 (P07947 whole entry, species assumed): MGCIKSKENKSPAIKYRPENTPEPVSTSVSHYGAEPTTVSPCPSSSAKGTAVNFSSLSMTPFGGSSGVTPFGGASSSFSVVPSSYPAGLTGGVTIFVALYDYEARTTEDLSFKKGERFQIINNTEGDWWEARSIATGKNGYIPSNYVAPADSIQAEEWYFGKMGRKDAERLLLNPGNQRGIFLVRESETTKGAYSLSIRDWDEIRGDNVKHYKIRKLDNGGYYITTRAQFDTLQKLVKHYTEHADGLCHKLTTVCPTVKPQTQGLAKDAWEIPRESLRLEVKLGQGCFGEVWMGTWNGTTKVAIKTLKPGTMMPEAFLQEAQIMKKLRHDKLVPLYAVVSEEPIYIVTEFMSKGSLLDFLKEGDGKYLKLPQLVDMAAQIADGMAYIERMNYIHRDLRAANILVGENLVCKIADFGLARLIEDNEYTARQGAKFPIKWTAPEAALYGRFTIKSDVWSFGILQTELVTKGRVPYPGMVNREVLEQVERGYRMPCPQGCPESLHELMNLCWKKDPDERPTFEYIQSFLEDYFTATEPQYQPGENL
Chain of CK1δ (P48730 whole entry): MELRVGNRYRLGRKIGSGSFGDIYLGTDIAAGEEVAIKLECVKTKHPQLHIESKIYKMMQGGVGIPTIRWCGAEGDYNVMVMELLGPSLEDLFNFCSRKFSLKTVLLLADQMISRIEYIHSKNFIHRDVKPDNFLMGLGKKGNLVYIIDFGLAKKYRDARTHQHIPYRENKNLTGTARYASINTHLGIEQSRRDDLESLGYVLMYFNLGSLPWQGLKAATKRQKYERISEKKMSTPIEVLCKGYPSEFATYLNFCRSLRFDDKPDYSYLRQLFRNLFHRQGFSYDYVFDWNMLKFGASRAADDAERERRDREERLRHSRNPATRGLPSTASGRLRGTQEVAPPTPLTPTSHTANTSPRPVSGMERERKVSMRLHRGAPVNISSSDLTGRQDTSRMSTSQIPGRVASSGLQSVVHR
Chain of MPSK1 (O75716 whole entry): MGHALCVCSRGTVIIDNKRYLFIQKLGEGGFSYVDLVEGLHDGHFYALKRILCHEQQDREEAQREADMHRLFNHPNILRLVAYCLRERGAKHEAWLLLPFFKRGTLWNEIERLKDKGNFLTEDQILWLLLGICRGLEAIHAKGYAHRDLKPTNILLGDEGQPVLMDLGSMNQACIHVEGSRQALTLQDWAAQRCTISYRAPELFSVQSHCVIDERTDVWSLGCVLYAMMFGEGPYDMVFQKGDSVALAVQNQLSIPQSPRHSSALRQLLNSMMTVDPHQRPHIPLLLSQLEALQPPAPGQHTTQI

CN1C2CC1CN(c1ccc(Nc3ncc4ccn(CC5CCOCC5)c4n3)cc1)C2 [Compound 24]
% activity remaining (TrkA): 72%
% activity remaining (IR): 87%
% activity remaining (YES1): 46%
% activity remaining (MAP4K5): 78%
% activity remaining (MARK1): 94%
% activity remaining (DYRK3): 65%
% activity remaining (STK33): 93%
% activity remaining (CSK): 97%
% activity remaining (NEK6): 98%
% activity remaining (CK1δ): 93%
% activity remaining (MSK1): 84%
% activity remaining (Lck): 67%
% activity remaining (MNK2): 89%
% activity remaining (PKA): 90%
% activity remaining (EPH-B4): 86%
% activity remaining (PINK): 99%
% activity remaining (TSSK1): 77%
% activity remaining (MAPKAP-K3): 109%
% activity remaining (MPSK1): 76%
% activity remaining (ZAP70): 95%
% activity remaining (SmMLCK): 102%
% activity remaining (ERK2): 114%
% activity remaining (MAP4K3): 62%
% activity remaining (SRPK1): 79%
% activity remaining (CAMKKb): 43%
% activity remaining (PRK2): 71%
% activity remaining (SGK1): 72%
% activity remaining (DDR2): 82%
% activity remaining (PIM2): 111%
% activity remaining (RSK1): 74%
% activity remaining (PKBb): 93%
% activity remaining (PKCa): 96%
% activity remaining (GSK3b): 69%
% activity remaining (TAO1): 97%

Cc1cc(=O)n(C2CCCC2)c2nc(Nc3ccc(N4CC5CC(C4)N5C)cc3)ncc12 [Compound 9]
IC50 (TrkA): 97.7 nM
% activity remaining (TrkA): 12%
TrkA pIC50 (TrkA; [1]): > 7
% activity remaining (IR): 14%
IC50 (IR; radiometric filter binding panel, read-out: IR pIC50 (converted)): 263 nM
% activity remaining (YES1): 13%
YES1 pIC50 (YES1; [1]): > 7
IC50 (YES1; radiometric filter binding panel, read-out: YES1 pIC50 (converted)): 75.9 nM
% activity remaining (MAP4K5): 14%
MAP4K5 pIC50 (MAP4K5; [1]): > 7
IC50 (MAP4K5; radiometric filter binding panel, read-out: MAP4K5 pIC50 (converted)): 110 nM
% activity remaining (MARK1): 56%
inhibition at 1 µM (MARK1; at 1 μM, radiometric filter binding assay, Dundee, read-out: MARK1 single point % inhibition): 44%
% activity remaining (DYRK3): 74%
% activity remaining (STK33): 101%
% activity remaining (CSK): 104%
% activity remaining (NEK6): 105%
% activity remaining (CK1δ): 66%
% activity remaining (MSK1): 61%
% activity remaining (Lck): 64%
% activity remaining (MNK2): 56%
% activity remaining (PKA): 84%
% activity remaining (EPH-B4): 61%
% activity remaining (PINK): 96%
% activity remaining (TSSK1): 56%
% activity remaining (MAPKAP-K3): 84%
% activity remaining (MPSK1): 114%
% activity remaining (ZAP70): 94%
% activity remaining (SmMLCK): 61%
% activity remaining (ERK2): 93%
% activity remaining (MAP4K3): 29%
% activity remaining (SRPK1): 111%
% activity remaining (CAMKKb): 86%
% activity remaining (PRK2): 75%
% activity remaining (SGK1): 96%
% activity remaining (DDR2): 39%
% activity remaining (PIM2): 99%
% activity remaining (RSK1): 41%
% activity remaining (PKBb): 99%
% activity remaining (PKCa): 86%
% activity remaining (GSK3b): 101%
% activity remaining (TAO1): 91%
